How the values were obtained:
Zucker fa/fa obese rats = assay: Long-term treatment (12 months) of Zucker fa/fa obese rats with established obesity; protection of renal function; format: in vivo; conditions: for mortality: after 12 months, untreated obese rats 64%
Procedure: The Zucker obese rat strain fa/fa is characterized by hyperphagia, obesity, dyslipidemia aid type 2 diabetes resulting in the gradual development of a nephropathy.
A group of Zucker fa/fa obese rats that were not treated, but received the same amount of food as the group treated with 10 mg/kg/day per os, was also formed (pair-fed group).

obese patients = conditions: clinical studies, cited from earlier work
[1] = Zucker fa/fa obese rats, 3 and 10 mg/kg/day per os for 12 months, vs vehicle
[2] = after 12 months of treatment, 3 and 10 mg/kg/day

Cc1c(C(=O)NN2CCCCC2)nn(-c2ccc(Cl)cc2Cl)c1-c1ccc(Cl)cc1 [rimonabant, N-piperidino-5-(4-chlorophenyl)-1-(2,4-dichlorophenyl)-4-methylpyrazole-3-carboxamide]
mortality (Zucker fa/fa obese rats; 3 mg/kg/day per os, p<0.05): 28% | mortality (Zucker fa/fa obese rats; 10 mg/kg/day per os, p<0.01): 20% | survival of the Zucker fa/fa obese rats (Zucker fa/fa obese rats; 3 and 10 mg/kg/day per os): very significantly prolongs | creatinine clearance (Zucker fa/fa obese rats; [1]): partially restored | increase in plasma creatinine level (Zucker fa/fa obese rats; [1]): decreased in a dose-dependent manner | increase in plasma urea level (Zucker fa/fa obese rats; [1]): decreased in a dose-dependent manner | renal hypertrophy (Zucker fa/fa obese rats; Zucker fa/fa obese rats, 12 months treatment, vs vehicle): significantly reduced | contractility (Zucker fa/fa obese rats; [2]): remain unchanged | heart rate (Zucker fa/fa obese rats; [2]): remain unchanged | left ventricular pressure (Zucker fa/fa obese rats; [2]): remain unchanged | mean arterial pressure (Zucker fa/fa obese rats; [2]): remain unchanged | protienuria (Zucker fa/fa obese rats; chronic treatment, 3 and 10 mg/kg/day per os): significantly delays | body weight of obese patients (obese patients; obese patients): reduces | food intake (obese patients): acts on food intake in quantitative and qualitative terms
